Test results reported in patent US20140303164A1, “THERAPEUTIC COMPOUNDS” (Gilead Sciences, Inc., priority 2013, published 2014).

What was measured:
[1] = tested on: HIV-IIIb; assay: Test A: Antiviral Assay in MT4 Cells; type: cell-based, HIV-1; details: Human immunodeficiency virus 1, IIIB, MT4, 120 h; for inhibition at 0.2 µM: read-out: % inhibition at 0.2 μM; for inhibition at 2 µM: read-out: % inhibition at 2 μM
Method: Test A: Antiviral Assay in MT4 Cells
(§1) MT-4 cells were next mixed with HIV-IIIb at an m.o.i of 0.003 for 1 hour, after which time 35 μL of virus/cell mixture (2000 cells) was immediately added to each well containing 40 μL of diluted compound. The plates were then incubated at 37° C. for 5 days. […] Cell lysis was carried out by incubating at room temperature for 10 min and then chemiluminescence was read.

[2] = Test B: Cytotoxicity Assay; type: cell-based; details: human, uninfected MT-4 cells, same protocol as Test A
Method: as §1
Test B: Cytotoxicity Assay
Compound cytotoxicity and the corresponding CC50 values was determined using the same protocol as described in the antiviral assay (Test A) except that uninfected cells were used.

Row | SMILES | inhibition at 0.2 µM [1] [%] | inhibition at 2 µM [1] [%] | CC50 at 5 days [2] [µM]
1 | Cn1nc(NC(=O)C(F)F)c2c(Cl)ccc(-c3ccc(C#CC(C)(C)O)nc3[C@H](Cc3cc(F)cc(F)c3)NC(=O)Cn3nc(C(F)F)c4c3C(F)(F)[C@@H]3C[C@H]43)c21 [Compound 97, N-(4-chloro-7-(2-((S)-1-(2-((3b-S,4aR)-3-(difluoromethyl)-5,5-difluoro-3b,4,4a,5-tetrahydro-1H-cyclopropa[3,4]cyclopenta[1,2-c]pyrazol-1-yl)acetamido)-2-(3,5-difluorophenyl)ethyl)-6-(3-hydroxy-3-methylbut-1-yn-1-yl)pyridin-3-yl)-1-methyl-1H-indazol-3-yl)-2,2-difluoroacetamide] | 100 | 100 | 7.6
2 | Cn1nc(NC(=O)N2CCOCC2)c2cccc(-c3ccc(C#CC(C)(C)O)nc3[C@H](Cc3cc(F)cc(F)c3)NC(=O)Cn3nc(C(F)(F)F)c4c3C(F)(F)[C@@H]3C[C@H]43)c21 [Compound 52, N-(7-(2-((S)-1-(2-((3bS,4aR)-5,5-difluoro-3-(trifluoromethyl)-3b,4,4a,5-tetrahydro-1H-cyclopropa[3,4]cyclopenta[1,2-c]pyrazol-1-yl)acetamido)-2-(3,5-difluorophenyl)ethyl)-6-(3-hydroxy-3-methylbut-1-yn-1-yl)pyridin-3-yl)-1-methyl-1H-indazol-3-yl)morpholine-4-carboxamide] | 92 | 93 | 31.8
3 | Cn1nc(NS(C)(=O)=O)c2c(Cl)ccc(-c3ccc(C#CC(C)(C)O)nc3[C@H](Cc3cc(F)cc(F)c3)NC(=O)Cn3nc(C4(O)CC4)c4c3CCCC4)c21 [Compound 156E, (S)—N-(1-(3-(4 chloro-1-methyl-3-(methylsulfonamido)-1H-indazol-7-yl)-6-(3-hydroxy-3-methylbut-1-yn-1-yl)pyridin-2-yl)-2-(3,5-difluorophenyl)ethyl)-2-(3-(1-hydroxycyclopropyl)-4,5,6,7-tetrahydro-1H-indazol-1-yl)acetamide] | 78 | 78 | 25.6
4 | COCC(=O)Nc1nn(C)c2c(-c3ccc(C#CC(C)(C)O)nc3[C@H](Cc3cc(F)cc(F)c3)NC(=O)Cn3nc(C(F)F)c4c3C(F)(F)[C@@H]3C[C@H]43)ccc(Cl)c12 [Compound 84, N—((S)-1-(3-(4-chloro-3-(2-methoxyacetamido)-1-methyl-1H-indazol-7-yl)-6-(3-hydroxy-3-methylbut-1-yn-1-yl)pyridin-2-yl)-2-(3,5-difluorophenyl)ethyl)-2-((3b-S,4aR)-3-(difluoromethyl)-5,5-difluoro-3b,4,4a,5-tetrahydro-1H-cyclopropa[3,4]cyclopenta[1,2-c]pyrazol-1-yl)acetamide] | 100 | 100 | 8.73
5 | CNC(=O)c1nn(CC(=O)N[C@@H](Cc2cc(F)cc(F)c2)c2nc(C#CC(C)(C)O)ccc2-c2ccc(Cl)c3c(NS(C)(=O)=O)nn(C)c23)c2c1[C@H]1C[C@H]1C2(F)F [Compound 165, (3bS,4aR)-1-(2-(((S)-1-(3-(4-chloro-1-methyl-3-(methylsulfonamido)-1H-indazol-7-yl)-6-(3-hydroxy-3-methylbut-1-yn-1-yl)pyridin-2-yl)-2-(3,5-difluorophenyl)ethyl)amino)-2-oxoethyl)-5,5-difluoro-N-methyl-3b,4,4a,5-tetrahydro-1H-cyclopropa[3,4]cyclopenta[1,2-c]pyrazole-3-carboxamide] | 72 | 72 | 5.46
6 | Cn1nc(NS(C)(=O)=O)c2c(Cl)ccc(-c3ccc(C#CC(C)(C)O)nc3[C@H](Cc3cc(F)cc(F)c3)NC(=O)Cn3nc(Cl)c4c3CCCC4)c21 [Compound 126, (S)—N-(1-(3-(4 chloro-1-methyl-3-(methylsulfonamido)-1H-indazol-7-yl)-6-(3-hydroxy-3-methylbut-1-yn-1-yl)pyridin-2-yl)-2-(3,5-difluorophenyl)ethyl)-2-(3-chloro-4,5,6,7-tetrahydro-1H-indazol-1-yl)acetamide] | 92 | 92 | 15.5
7 | Cc1[nH]c2ccc(O)cc2c1CC(=O)N[C@@H](Cc1cc(F)cc(F)c1)c1nc(C#CC(C)(C)O)ccc1-c1ccc(Cl)c2c(NS(C)(=O)=O)nn(C)c12 [Compound 192, (S)—N-(1-(3-(4 chloro-1-methyl-3-(methylsulfonamido)-1H-indazol-7-yl)-6-(3-hydroxy-3-methylbut-1-yn-1-yl)pyridin-2-yl)-2-(3,5-difluorophenyl)ethyl)-2-(5-hydroxy-2-methyl-1H-indol-3-yl)acetamide] | 95 | 98 | 28.8
8 | CC(C)C(O)C#Cc1ccc(-c2cccc3c(NS(C)(=O)=O)nn(C)c23)c([C@H](Cc2cc(F)cc(F)c2)NC(=O)Cn2nc(C(F)(F)F)c3c2C(F)(F)[C@@H]2C[C@H]32)n1 (stereo partly drawn) [Compound 64, 2-((3bS,4aR)-5,5-difluoro-3-(trifluoromethyl)-3b,4,4a,5-tetrahydro-1H-cyclopropa[3,4]cyclopenta[1,2-c]pyrazol-1-yl)-N-((1S)-2-(3,5-difluorophenyl)-1-(6-(3-hydroxy-4-methylpent-1-yn-1-yl)-3-(1-methyl-3-(methylsulfonamido)-1H-indazol-7-yl)pyridin-2-yl)ethyl)acetamide] | 98 | 98 | 7.7
9 | Cn1nc(NS(=O)(=O)c2cn[nH]c2)c2cccc(-c3ccc(C#CC(C)(C)O)nc3[C@H](Cc3cc(F)cc(F)c3)NC(=O)Cn3nc(C(F)(F)F)c4c3C(F)(F)[C@@H]3C[C@H]43)c21 [Compound 49, 2-((3bS,4aR)-5,5-difluoro-3-(trifluoromethyl)-3b,4,4a,5-tetrahydro-1H-cyclopropa[3,4]cyclopenta[1,2-c]pyrazol-1-yl)-N—((S)-2-(3,5-difluorophenyl)-1-(6-(3-hydroxy-3-methylbut-1-yn-1-yl)-3-(1-methyl-3-(1H-pyrazole-4-sulfonamido)-1H-indazol-7-yl)pyridin-2-yl)ethyl)acetamide] | 87 | 87 | 24
10 | Cn1nc(NS(C)(=O)=O)c2c(Cl)ccc(-c3ccc(C#CC(C)(O)CO)nc3[C@H](Cc3cc(F)cc(F)c3)NC(=O)Cn3nc(C(F)F)c4c3C(F)(F)[C@@H]3C[C@H]43)c21 (stereo partly drawn) [Compound 166, N-((1S)-1-(3-(4-chloro-1-methyl-3-(methylsulfonamido)-1H-indazol-7-yl)-6-(3,4-dihydroxy-3-methylbut-1-yn-1-yl)pyridin-2-yl)-2-(3,5-difluorophenyl)ethyl)-2-((3b-S,4aR)-3-(difluoromethyl)-5,5-difluoro-3b,4,4a,5-tetrahydro-1H-cyclopropa[3,4]cyclopenta[1,2-c]pyrazol-1-yl)acetamide] | 92 | 92 | 24.4
11 | Cn1nc(NS(C)(=O)=O)c2c(Cl)ccc(-c3ccc(C#CC(C)(C)O)nc3[C@H](Cc3cc(F)cc(F)c3)NC(=O)Cc3cccc(Cl)c3Cl)c21 [Compound 129, (S)—N-(1-(3-(4 chloro-1-methyl-3-(methylsulfonamido)-1H-indazol-7-yl)-6-(3-hydroxy-3-methylbut-1-yn-1-yl)pyridin-2-yl)-2-(3,5-difluorophenyl)ethyl)-2-(2,3-dichlorophenyl)acetamide] | 54 | 82 | 12.1
